Measured values reported in patent US10829520B2, “Beta-hairpin peptidomimetics” (POLYPHOR AG, priority 2015, dated 2020).
Where a SMILES comes first, the peptide text is derived from it. Bridges are numbered along the chain shown (N, C = ends). Roman numbers before positions name the chains, in order. [ ]: non-standard residue; d: D form. Tle = CC(C)(C)[C@H](N)C(=O)O; Nle = CCCC[C@H](N)C(=O)O; Orn = NCCC[C@H](N)C(=O)O; Dab = NCC[C@H](N)C(=O)O; Dap = NC[C@H](N)C(=O)O

Key:
Type in all cases: cell-based
[1] = tested on: Acinetobacter baumannii 872842; conditions: 872842
[2] = tested on: Acinetobacter baumannii DSM 30008; conditions: DSM 30008
Summary of the method: (§1)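 Broth microdilution per CLSI, cation-adjusted MH-II medium, 0.002% (v/v) polysorbate 80 final. Approx. 10^6 CFU/mL inoculum, incubated 35° C for 18-20 h; MIC read as absence of visible growth.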

Escherichia coli 926415 = conditions: 926415
[3] = tested on: Escherichia coli ATCC 25922; conditions: ATCC 25922
Summary of the method: as §1

[4] = tested on: Klebsiella pneumoniae 968733; conditions: 968733
[5] = tested on: Klebsiella pneumoniae SSI #3010; conditions: SSI #3010
Summary of the method: as §1

[6] = tested on: Pseudomonas aeruginosa ATCC 27853; conditions: ATCC 27853
Summary of the method: as §1

[7] = tested on: human red blood cells (hRBC); assay: Hemolysis of human red blood cells; conditions: red cells of human, 1 h
Summary of the method: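 Peptides at 100 μg/mL were incubated with PBS-washed fresh human erythrocytes (20% v/v, ~0.9×10^9 cells/mL final) for 1 h at 37° C. with shaking. Supernatant OD540 was read after 8-fold dilution; percent hemolysis was expressed relative to the 2.5% Triton X-100 full-lysis control, with PBS/0.001% acetic acid as 0%.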

Structure (SMILES) | Acinetobacter baumannii 872842 MIC [1] | Acinetobacter baumannii DSM 30008 MIC [2] | Escherichia coli 926415 MIC (Escherichia coli 926415) | Escherichia coli ATCC 25922 MIC [3] | Klebsiella pneumoniae 968733 MIC [4] | Klebsiella pneumoniae SSI #3010 MIC [5] | Pseudomonas aeruginosa ATCC 27853 MIC [6] | Hemolysis at 100 μg/mL [7]; 100 | Hemolysis at 100 μg/mL ([7]; 100 μg/mL)
CCCC[C@@H]1NC(=O)[C@@H]2CCCN2C(=O)[C@H]2CCCN2C(=O)[C@H](CO)NC(=O)[C@H](C)NC(=O)[C@H](C(C)(C)C)NC(=O)[C@H](CCN)NC(=O)[C@H](Cc2c[nH]c3ccccc23)NC(=O)[C@H](CCN)NC(=O)[C@@H](CCC(=O)N[C@H]2CCNC(=O)[C@H]([C@@H](C)O)NC(=O)[C@H](CCN)NC(=O)[C@H](CCN)NC(=O)[C@H](CC(C)C)NC(=O)[C@@H](Cc3ccccc3)NC(=O)[C@H](CCN)NC2=O)NC(=O)[C@H](CCCN)NC(=O)[C@H](CCN)NC(=O)[C@H](Cc2ccc(O)cc2)NC(=O)[C@H](CO)NC1=O [Ex. 1] (I: cyclo([Nle]SY[Dab][Orn][dE][Dab]W[Dab][Tle]AS[dP]P) / II: [Dab][Dab][dF]L[Dab][Dab]T; amide I:6-II:N; lactam II:1-II:C) | 2 µg/mL | 0.125 µg/mL | 1 µg/mL | 0.25 µg/mL | 4 µg/mL | 0.5 µg/mL | 0.5 µg/mL | 1% | 
CCCC[C@@H]1NC(=O)[C@@H]2CCCN2C(=O)[C@H]2CCCN2C(=O)[C@H](CO)NC(=O)[C@H](C)NC(=O)[C@H](C(C)(C)C)NC(=O)[C@H](CCN)NC(=O)[C@H](Cc2c[nH]c3ccccc23)NC(=O)[C@H](CCN)NC(=O)[C@@H](CCC(=O)N[C@@H](CCN)C(=O)N[C@H]2CCNC(=O)[C@H]([C@@H](C)O)NC(=O)[C@H](CCN)NC(=O)[C@H](CCN)NC(=O)[C@H](CC(C)C)NC(=O)[C@@H](Cc3ccccc3)NC(=O)[C@H](CCN)NC2=O)NC(=O)[C@H](CCCN)NC(=O)[C@H](CCN)NC(=O)[C@H](Cc2ccc(O)cc2)NC(=O)[C@H](CO)NC1=O [Ex. 2] (I: cyclo([Nle]SY[Dab][Orn][dE][Dab]W[Dab][Tle]AS[dP]P) / II: [Dab][Dab][Dab][dF]L[Dab][Dab]T; amide I:6-II:N; lactam II:2-II:C) | 2 µg/mL | 1 µg/mL | 2 µg/mL | 0.5 µg/mL | 4 µg/mL | 1 µg/mL | 0.25 µg/mL | 1% | 
CCCC[C@@H]1NC(=O)[C@@H]2CCCN2C(=O)[C@H]2CCCN2C(=O)[C@H](CO)NC(=O)[C@H](C)NC(=O)[C@H](C(C)(C)C)NC(=O)[C@H](CCN)NC(=O)[C@H](Cc2c[nH]c3ccccc23)NC(=O)[C@H](CCN)NC(=O)[C@H](CCC(=O)N[C@@H](CCN)C(=O)N[C@H]2CCNC(=O)[C@H]([C@@H](C)O)NC(=O)[C@H](CCN)NC(=O)[C@H](CCN)NC(=O)[C@H](CC(C)C)NC(=O)[C@@H](Cc3ccccc3)NC(=O)[C@H](CCN)NC2=O)NC(=O)[C@H](CCCN)NC(=O)[C@H](CCN)NC(=O)[C@H](Cc2ccc(O)cc2)NC(=O)[C@H](CO)NC1=O [Ex. 3] (I: cyclo([Nle]SY[Dab][Orn]E[Dab]W[Dab][Tle]AS[dP]P) / II: [Dab][Dab][Dab][dF]L[Dab][Dab]T; amide I:6-II:N; lactam II:2-II:C) | 2 µg/mL | 1 µg/mL | 0.25 µg/mL | 0.5 µg/mL | 1 µg/mL | 0.5 µg/mL | 0.25 µg/mL | <1% | 
CCCC[C@@H]1NC(=O)[C@@H]2CCCN2C(=O)[C@H]2CCCN2C(=O)[C@H](CO)NC(=O)[C@H](C)NC(=O)[C@H](C(C)(C)C)NC(=O)[C@H](CCN)NC(=O)[C@H](Cc2c[nH]c3ccccc23)NC(=O)[C@H](CCN)NC(=O)[C@H](CC(=O)N[C@@H](CCN)C(=O)N[C@@H](CCN)C(=O)N[C@H]2CCNC(=O)[C@H]([C@@H](C)O)NC(=O)[C@H](CCN)NC(=O)[C@H](CCN)NC(=O)[C@H](CC(C)C)NC(=O)[C@@H](Cc3ccccc3)NC(=O)[C@H](CCN)NC2=O)NC(=O)[C@H](CCCN)NC(=O)[C@H](CCN)NC(=O)[C@H](Cc2ccc(O)cc2)NC(=O)[C@H](CO)NC1=O [Ex. 4] (I: cyclo([Nle]SY[Dab][Orn]D[Dab]W[Dab][Tle]AS[dP]P) / II: [Dab][Dab][Dab][Dab][dF]L[Dab][Dab]T; amide I:6-II:N; lactam II:3-II:C) | 2 µg/mL | 1 µg/mL | 1 µg/mL | 1 µg/mL | 8 µg/mL | 1 µg/mL | 0.25 µg/mL | 1% | 
CCCC[C@@H]1NC(=O)[C@@H]2CCCN2C(=O)[C@H]2CCCN2C(=O)[C@H](CO)NC(=O)[C@H](C)NC(=O)[C@H](C(C)(C)C)NC(=O)[C@H](CCN)NC(=O)[C@H](Cc2c[nH]c3ccccc23)NC(=O)[C@H](CCN)NC(=O)[C@@H](CCC(=O)N[C@H](C(=O)N[C@@H](CCN)C(=O)N[C@H]2CCNC(=O)[C@H]([C@@H](C)O)NC(=O)[C@H](CCN)NC(=O)[C@H](CCN)NC(=O)[C@H](CC(C)C)NC(=O)[C@@H](Cc3ccccc3)NC(=O)[C@H](CCN)NC2=O)[C@@H](C)O)NC(=O)[C@H](CCCN)NC(=O)[C@H](CCN)NC(=O)[C@H](Cc2ccc(O)cc2)NC(=O)[C@H](CO)NC1=O [Ex. 5] (I: cyclo([Nle]SY[Dab][Orn][dE][Dab]W[Dab][Tle]AS[dP]P) / II: T[Dab][Dab][Dab][dF]L[Dab][Dab]T; amide I:6-II:N; lactam II:3-II:C) | 1 µg/mL | 0.5 µg/mL | 0.5 µg/mL | 2 µg/mL | 2 µg/mL | 0.5 µg/mL | 0.5 µg/mL | 1% | 
CCCC[C@@H]1NC(=O)[C@@H]2CCCN2C(=O)[C@H]2CCCN2C(=O)[C@H](CO)NC(=O)[C@H](C)NC(=O)[C@H](C(C)(C)C)NC(=O)[C@H](CCN)NC(=O)[C@H](Cc2c[nH]c3ccccc23)NC(=O)[C@H](CCN)NC(=O)[C@H](CCC(=O)N[C@H](C(=O)N[C@@H](CCN)C(=O)N[C@H]2CCNC(=O)[C@H]([C@@H](C)O)NC(=O)[C@H](CCN)NC(=O)[C@H](CCN)NC(=O)[C@H](CC(C)C)NC(=O)[C@@H](Cc3ccccc3)NC(=O)[C@H](CCN)NC2=O)[C@@H](C)O)NC(=O)[C@H](CCCN)NC(=O)[C@H](CCN)NC(=O)[C@H](Cc2ccc(O)cc2)NC(=O)[C@H](CO)NC1=O [Ex. 6] (I: cyclo([Nle]SY[Dab][Orn]E[Dab]W[Dab][Tle]AS[dP]P) / II: T[Dab][Dab][Dab][dF]L[Dab][Dab]T; amide I:6-II:N; lactam II:3-II:C) | 2 µg/mL | 2 µg/mL | 1 µg/mL | 0.25 µg/mL | 2 µg/mL | 0.5 µg/mL | 0.5 µg/mL | <1% | 
CCCC[C@@H]1NC(=O)[C@@H]2CCCN2C(=O)[C@H]2CCCN2C(=O)[C@H]([C@@H](C)O)NC(=O)[C@H](CN)NC(=O)[C@H](C(C)(C)C)NC(=O)[C@@H](NC(=O)[C@H](Cc2c[nH]c3ccccc23)NC(C)=O)CSSC[C@@H](C(=O)N[C@@H](CCN)C(=O)N[C@H](C(=O)N[C@@H](CCN)C(=O)N[C@H]2CCNC(=O)[C@H]([C@@H](C)O)NC(=O)[C@H](CCN)NC(=O)[C@H](CCN)NC(=O)[C@H](CC(C)C)NC(=O)[C@@H](Cc3ccccc3)NC(=O)[C@H](CCN)NC2=O)[C@@H](C)O)NC(=O)[C@H](Cc2ccc(O)cc2)NC(=O)CNC1=O [Ex. 19] (Ac-WC[Tle][Dap]T[dP]P[Nle]GYC[Dab]T[Dab][Dab][Dab][dF]L[Dab][Dab]T; disulfide 2-11; lactam 15-C) | 0.75 µg/mL | 0.25 µg/mL | 0.25 µg/mL |  | 0.75 µg/mL | 1 µg/mL | 1 µg/mL |  | <1%
CCCC[C@@H]1NC(=O)[C@@H]2CCCN2C(=O)[C@H]2CCCN2C(=O)[C@H]([C@@H](C)O)NC(=O)[C@H](CN)NC(=O)[C@H](C(C)(C)C)NC(=O)[C@@H](NC(=O)[C@H](Cc2c[nH]c3ccccc23)NC(C)=O)CSSC[C@@H](C(=O)N[C@@H](CCN)C(=O)N[C@H](C(=O)N[C@@H](CCN)C(=O)N[C@H]2CCNC(=O)[C@H]([C@@H](C)O)NC(=O)[C@H](CCN)NC(=O)[C@H](CCN)NC(=O)[C@H](CC(C)C)NC(=O)[C@@H](Cc3ccccc3)NC(=O)[C@H](CCN)NC2=O)[C@@H](C)O)NC(=O)[C@H](Cc2ccc(O)cc2)NC(=O)CNC1=O [Ex. 116] (Ac-WC[Tle][Dap]T[dP]P[Nle]GYC[Dab]T[Dab][Dab][Dab][dF]L[Dab][Dab]T; disulfide 2-11; lactam 15-C) | 0.125 µg/mL | 0.25 µg/mL | 0.0625 µg/mL |  | 0.5 µg/mL | 0.25 µg/mL | 1 µg/mL |  | <1%
